We go through 6 molecules from patent US9399666B2, “Inhibiting interaction between the HIF-1ALPHA and p300/CBP with hydrogen bond surrogate-based helices” (New York University, priority 2008, dated 2016).

Peptide text beside a SMILES is read from it.

A short description of data set [1]: Percent helicity by circular dichroism spectroscopy. It counts as physicochemical. The source says: Helix αA of HIF-1α C-TAD, shown in FIG. 1A and FIG. 1C, is critical for the interaction between the CH1 domain and HIF-1α, because mutation of its residues or hydroxylation of Asn803 is known to disrupt this complex and inhibit HIF-1α mediated transcription (Freedman et al., “Structural Basis for Recruitment of CBP/p300 by Hypoxia-inducible Factor-1α,” Proc. Nat'l Acad. Sci. USA 99:5367-72 (2002); Dames et al., “Structural Basis for Hif-1α/CBP Recognition in the Cellular Hypoxic Response,” Proc. Nat'1 Acad. Sci. USA 99:5271-6 (2002). Development of HBS helices as potential inhibitors of VEGF transcription was begun by mimicking the aA helix region of HIF-1. This helix consists of eight residues, […] (SEQ ID NO: 111), and features three residues, Asp-Cys-Glu, critical for binding with p300/CBP. Several linear peptides and their HBS α-helix analogs were designed to gauge the potential of these molecules to inhibit VEGF transcription in cell culture. Each unconstrained peptide and HBS helix was synthesized using the procedures described in (Dimartino et al., “Solid-phase Synthesis of Hydrogen-bond Surrogate-derived α-Helices,” Org. Lett. 7:2389-92 (2005); Chapman & Arora, “Optimized Synthesis of Hydrogen-bond Surrogate Helices: Surprising Effects of Microwave Heating on the Activity of Grubbs Catalysts,” Org. Lett. 8:5825-8 (2006)). The percent helicity of each peptide was determined using circular dichroism spectroscopy in 10 mM phosphate buffered saline as described in (Wang et al., “Evaluation of Biologically Relevant Short α-Helices Stabilized by a Main-chain Hydrogen-bond Surrogate,” J. Am. Chem. Soc. 128:9248-56 (2006)). The affinity of each peptide for p300 was measured by isothermal titration calorimetry analysis (Wiseman et al., “Rapid Measurement of Binding Constants and Heats of Binding Using a New Titration calorimeter,” Anal. Biochem. 179:131-7 (1989); Freire et al., “Isothermal Titration calorimetry,” Anal. Chem. 62:A950-A959 (1990); Chervenak & Toone, “Calorimetric Analysis of the Binding of Lectins with Overlapping Carhohydrate-binding Ligand Specificities,” Biochemistry 34:5685-95 (1995); Aki et al., “Competitive Binding of Drugs to the Multiple Binding Sites on Human Serum Albumin. A calorimetric Study,” J Thermal Anal. calorim. […] The ability of each peptide to downregulate VEGF transcription in cell culture was evaluated by […] quantitative RT-PCR, as described above. The cytotoxicity of each peptide was determined by monitoring cellular growth and population doubling in the presence of individual peptides at 1μM concentration.
Background: Circular dichroism is widely used to follow secondary structure.

Data set [2] can be described thus: circular dichroism. As to conditions: 10 mM phosphate buffered saline (par. 0128, each peptide; pH given only for 22 and 25, Fig 6B), pH 7.4, ns °C.
In data set [3] the test system is MDA-MB-231-HRE-Luc cells. It is filed as cell-based. The method, then: MDA-MB-231-HRE-Luc cells were maintained in high glucose Dulbecco's Modified Eagle's Medium (“DMEM”) supplemented with 10% fetal bovine serum and 0.4 g/L Geneticin (G418 sulfate, RPI Corporation). Cells were plated in 24-well dishes (BD Falcon) at a density of […] using 1 mL of a 6.5×10^4 cell/mL suspension. […] Cells were incubated for 6 hours at 37° C. in a humidified atmosphere with 5% CO2. Hypoxia was induced by adding desferoxamine mesylate (DFO, Sigma) to a final concentration of 300 μM, and cells were incubated for an additional 18 hours. Whole cell lysates were isolated by washing the cells twice with ice cold PBS and then adding 150 μL of Cell Culture Lysis Reagent (“CCLR,” Promega). Lysate was collected, centrifuged at 13,000 rpm at 4° C., aliquoted, and stored at −80° C. Luciferase assays were conducted according to the manufacturer's instructions (Promega) using a Turner TD-20e Luminometer. Relative light intensity measurements were normalized by performing a Bradford assay to determine the protein content of the lysate used in the luciferase assay. Briefly, 50 μL of cell lysate/luciferase assay reagent mix was added to 200 μL of Bradford reagent and 750 μL of Millipore water in a 1.5 mL cuvette. Protein standards were created in the range of 1 μg/mL to 10 μg/mL with the appropriate amount of a 1 mg/mL BSA solution. Absorbance was measured at 595 nm using a DU-800 spectrophotometer. The experiments were carried out in triplicate with the error bars calculated as standard error of the mean.

Data set [4] relates to VEGF transcription in HeLa cells. Nature of the data set: VEGF gene expression by real-time qRT-PCR. It is filed as cell-based. As to conditions: FIG. 7. The source says: Real-time qRT-PCR was used to determine the effect of HBS helices on the level of expression of VEGF and GLUT1 genes in HeLa and MCF-7 cells, both under normoxic and hypoxic conditions. For VEGF analysis, the forward primer 5′AGGCCAGCACATAGGAGAGA-3′ (SEQ ID NO: 105) and reverse primer 5′TTTCCCTTTCCTCGAACTGA-3′ (SEQ ID NO:106) were used to amplify a 104-bp fragment from the […] of the gene. For GLUT1 (SLC2A1) analysis, the following sequences were utilized to yield a product of 179 bp: forward sequence 5′-TAGAAACATGGTTTTGAAATGC-3′ (SEQ ID NO:107), reverse sequence 5′-GGTAACAGGGATCAAACAGATT-3′ (SEQ ID NO:108). The levels of expression of β-glucuronidase were used as endogenous controls, since they remain unchanged under experimental conditions. The forward primer 5′-CTCATTTGGAATTTTGCCGATT-3′ (SEQ ID NO:109) and reverse primer 5′-CCGAGTGAAGATCCCCTTTTTA-3′ (SEQ ID NO:110) were used for this gene. Temperature cycling and detection of the SYBR green emission were performed with an ABI 7300 real-time PCR instrument. Data were analyzed with ABI Sequence Detection System, version 1.2. Statistical analysis was performed with the data from six independent experiments. The experiment was performed with Applied Biosystems SYBR Green RT-PCR master mix.
(In general: Real-time PCR tracks product formation cycle by cycle.)

The target in data set [5] is p300 (Homo sapiens, UniProt Q09472). The experiment in a line: Affinity for p300 by isothermal titration calorimetry. It is filed as binding. As to conditions: isothermal titration calorimetry, p300; read-out: Kd (ITC). The source says: Helix αA of HIF-1α C-TAD, shown in FIG. 1A and FIG. 1C, is critical for the interaction between the CH1 domain and HIF-1α, because mutation of its residues or hydroxylation of Asn803 is known to disrupt this complex and inhibit HIF-1α mediated transcription (Freedman et al., “Structural Basis for Recruitment of CBP/p300 by Hypoxia-inducible Factor-1α,” Proc. Nat'l Acad. Sci. USA 99:5367-72 (2002); Dames et al., “Structural Basis for Hif-1α/CBP Recognition in the Cellular Hypoxic Response,” Proc. Nat'1 Acad. Sci. USA 99:5271-6 (2002). Development of HBS helices as potential inhibitors of VEGF transcription was begun by mimicking the aA helix region of HIF-1. This helix consists of eight residues, […] (SEQ ID NO: 111), and features three residues, Asp-Cys-Glu, critical for binding with p300/CBP. Several linear peptides and their HBS α-helix analogs were designed to gauge the potential of these molecules to inhibit VEGF transcription in cell culture. Each unconstrained peptide and HBS helix was synthesized using the procedures described in (Dimartino et al., “Solid-phase Synthesis of Hydrogen-bond Surrogate-derived α-Helices,” Org. Lett. 7:2389-92 (2005); Chapman & Arora, “Optimized Synthesis of Hydrogen-bond Surrogate Helices: Surprising Effects of Microwave Heating on the Activity of Grubbs Catalysts,” Org. Lett. 8:5825-8 (2006)). The percent helicity of each peptide was determined using circular dichroism spectroscopy in 10 mM phosphate buffered saline as described in (Wang et al., “Evaluation of Biologically Relevant Short α-Helices Stabilized by a Main-chain Hydrogen-bond Surrogate,” J. Am. Chem. Soc. 128:9248-56 (2006)). The affinity of each peptide for p300 was measured by isothermal titration calorimetry analysis (Wiseman et al., “Rapid Measurement of Binding Constants and Heats of Binding Using a New Titration calorimeter,” Anal. Biochem. 179:131-7 (1989); Freire et al., “Isothermal Titration calorimetry,” Anal. Chem. 62:A950-A959 (1990); Chervenak & Toone, “Calorimetric Analysis of the Binding of Lectins with Overlapping Carhohydrate-binding Ligand Specificities,” Biochemistry 34:5685-95 (1995); Aki et al., “Competitive Binding of Drugs to the Multiple Binding Sites on Human Serum Albumin. A calorimetric Study,” J Thermal Anal. calorim. 57:36170 (1999); Graziano et al., “Linkage of Proton Binding to the Thermal Unfolding of Sso7d from the Hyperthermophilic Archaebacterium Sulfolobus solfataricus,” Int'l J. Biol. Macromolecules 26:45-53 (1999); Pluschke & Mutz, “Use of Isothermal Titration calorimetry in the Development of Molecularly Defined Vaccines,” J Thermal Anal. calorim. 57:377-88 (1999); Corbell et al., “A Comparison of Biological and calorimetric Analyses of Multivalent Glycodendrimer Ligands for Concanavalin A,” Tetrahedron-Asymmetry 11:95-111 (2000)). The ability of each peptide to downregulate VEGF transcription in cell culture was evaluated by […] quantitative RT-PCR, as described above. The cytotoxicity of each peptide was determined by monitoring cellular growth and population doubling in the presence of individual peptides at 1μM concentration.
Chain of p300 (Homo sapiens, UniProt Q09472) (Q09472 whole entry, the tested form may be a part): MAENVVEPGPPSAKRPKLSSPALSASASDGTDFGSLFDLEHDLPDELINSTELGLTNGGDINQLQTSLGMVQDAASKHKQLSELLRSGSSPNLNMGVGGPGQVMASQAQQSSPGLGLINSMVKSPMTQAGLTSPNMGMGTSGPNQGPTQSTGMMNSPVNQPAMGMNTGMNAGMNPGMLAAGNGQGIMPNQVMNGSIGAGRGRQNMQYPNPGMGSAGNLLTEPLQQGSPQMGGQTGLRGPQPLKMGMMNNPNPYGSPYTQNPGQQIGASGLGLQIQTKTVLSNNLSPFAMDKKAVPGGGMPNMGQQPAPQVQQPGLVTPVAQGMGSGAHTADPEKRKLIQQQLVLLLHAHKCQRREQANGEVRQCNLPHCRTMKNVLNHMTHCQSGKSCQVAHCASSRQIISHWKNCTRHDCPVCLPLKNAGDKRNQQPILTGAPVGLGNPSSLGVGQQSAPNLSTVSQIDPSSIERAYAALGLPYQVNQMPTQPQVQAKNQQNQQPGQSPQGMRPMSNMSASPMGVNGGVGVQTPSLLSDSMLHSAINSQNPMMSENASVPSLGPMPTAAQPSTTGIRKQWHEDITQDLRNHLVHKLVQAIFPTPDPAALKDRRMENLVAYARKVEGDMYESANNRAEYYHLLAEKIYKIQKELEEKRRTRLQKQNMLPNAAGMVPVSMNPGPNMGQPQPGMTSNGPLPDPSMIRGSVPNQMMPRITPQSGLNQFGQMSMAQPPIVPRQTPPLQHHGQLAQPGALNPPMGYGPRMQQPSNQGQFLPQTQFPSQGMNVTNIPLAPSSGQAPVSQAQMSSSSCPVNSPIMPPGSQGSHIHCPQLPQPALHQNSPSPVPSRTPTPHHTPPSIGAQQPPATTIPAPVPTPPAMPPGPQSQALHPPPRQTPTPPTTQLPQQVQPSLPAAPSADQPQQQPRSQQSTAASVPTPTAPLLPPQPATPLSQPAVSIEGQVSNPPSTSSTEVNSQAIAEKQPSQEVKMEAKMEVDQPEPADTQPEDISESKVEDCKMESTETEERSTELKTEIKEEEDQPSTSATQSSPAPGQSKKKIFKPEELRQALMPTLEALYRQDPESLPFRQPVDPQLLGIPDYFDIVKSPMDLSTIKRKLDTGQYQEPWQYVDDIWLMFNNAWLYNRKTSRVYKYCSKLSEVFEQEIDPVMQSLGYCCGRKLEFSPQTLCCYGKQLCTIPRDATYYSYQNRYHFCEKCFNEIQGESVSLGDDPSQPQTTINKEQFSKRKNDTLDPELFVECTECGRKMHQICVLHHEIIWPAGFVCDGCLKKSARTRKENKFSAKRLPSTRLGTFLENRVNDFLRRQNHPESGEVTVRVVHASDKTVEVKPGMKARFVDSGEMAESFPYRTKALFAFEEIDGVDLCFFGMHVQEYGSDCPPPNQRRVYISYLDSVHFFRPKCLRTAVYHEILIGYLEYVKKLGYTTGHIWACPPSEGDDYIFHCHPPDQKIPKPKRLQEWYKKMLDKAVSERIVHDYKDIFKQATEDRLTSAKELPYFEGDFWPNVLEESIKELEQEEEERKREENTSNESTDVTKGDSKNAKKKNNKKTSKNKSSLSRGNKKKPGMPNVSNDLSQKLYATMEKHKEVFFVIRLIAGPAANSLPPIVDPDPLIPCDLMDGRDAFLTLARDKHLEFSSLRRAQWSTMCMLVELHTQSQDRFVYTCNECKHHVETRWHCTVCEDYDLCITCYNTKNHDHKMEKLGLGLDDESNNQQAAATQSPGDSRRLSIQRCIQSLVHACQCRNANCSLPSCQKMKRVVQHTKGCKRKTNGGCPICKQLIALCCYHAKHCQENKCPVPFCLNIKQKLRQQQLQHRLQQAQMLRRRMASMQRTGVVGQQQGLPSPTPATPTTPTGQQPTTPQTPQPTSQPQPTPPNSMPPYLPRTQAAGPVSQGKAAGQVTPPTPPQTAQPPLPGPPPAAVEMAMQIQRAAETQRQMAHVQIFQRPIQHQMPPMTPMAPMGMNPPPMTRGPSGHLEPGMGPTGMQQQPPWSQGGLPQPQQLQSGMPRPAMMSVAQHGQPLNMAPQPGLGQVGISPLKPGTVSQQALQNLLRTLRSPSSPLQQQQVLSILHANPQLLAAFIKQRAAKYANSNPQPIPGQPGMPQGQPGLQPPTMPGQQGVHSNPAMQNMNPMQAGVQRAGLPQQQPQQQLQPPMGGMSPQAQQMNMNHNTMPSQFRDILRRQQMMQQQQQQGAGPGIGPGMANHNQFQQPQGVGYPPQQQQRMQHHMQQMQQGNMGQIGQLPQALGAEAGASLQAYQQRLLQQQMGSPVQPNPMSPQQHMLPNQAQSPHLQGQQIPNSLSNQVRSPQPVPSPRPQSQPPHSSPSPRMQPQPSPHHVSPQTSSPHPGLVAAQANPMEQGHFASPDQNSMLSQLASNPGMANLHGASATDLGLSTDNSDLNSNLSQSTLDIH

The test system of data set [6] is HIF-1α C-TAD and p300/CBP. As to conditions: literature (Kung et al. 2004); cited from earlier work.
The subject of data set [7] is experimental animals. As to conditions: cited from earlier work.
Data set [8] addresses T1, p300 (UniProt Q09472 323-423, limits assumed).
T1 construct: also called p300/CBP
Nature of the data set: isothermal titration calorimetry. For orientation: In ITC the heat of successive injections is recorded.

T1 sequence (Q09472 323-423 limits assumed): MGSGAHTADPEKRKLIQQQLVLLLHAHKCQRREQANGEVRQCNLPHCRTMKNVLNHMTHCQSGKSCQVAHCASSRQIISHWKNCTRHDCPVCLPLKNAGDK

In the case of `CC(=O)NCC(=O)N[C@H](C(=O)N[C@@H](C)C(=O)N[C@@H](C)C(=O)N[C@@H](CC(=O)O)C(=O)N[C@@H](CS)C(=O)N[C@@H](CCC(=O)O)C(=O)N[C@@H](Cc1ccc(O)cc1)C(=O)N[C@@H](CC(N)=O)C(=O)N[C@@H](C)C(=O)N[C@@H](CCCNC(=N)N)C(N)=O)[C@@H](C)O` [Compound 25] (Ac-GTAADCEYNAR-NH2), the “Helical content (in words)” value in data set [1] is “appears to be unstructured”. Also, the “% Helicity” value in data set [1] (10 mM phosphate buffered saline) worked out at 15%. The same molecule gave a helicity in data set [2] of 15%. Further, in data set [3] (luciferase assay and qRT-PCR, 1 μM peptide), the “% Transcription inhibition in cell culture (Luc & RT-PCR)” value was 8 ± 3%. The “Inhibition of VEGF transcription in HeLa cells (in words)” value in data set [4] is “negligible effect”.

Broadly, the Kd is a measure of binding affinity in units of concentration. As for `CN1C(=O)[C@]2(Cc3cn([C@]45C[C@@]67SS[C@@](CO)(C(=O)N6[C@H]4Nc4ccccc45)N(C)C7=O)c4ccccc34)SS[C@@]1(CO)C(=O)N2C` [Compound 26, chetomin, reference compound], the Kd in data set [5] was 0.12 µM. For the same molecule, the “Inhibition of interaction between HIF-1α C-TAD and p300/CBP” value in data set [6] is “inhibit the interaction between HIF-1α C-TAD and p300/CBP”. Moreover, the “% Transcription inhibition in cell culture” value in data set [3] (200 nM chetomin, qRT-PCR or luciferase, method not given) is recorded as 50 ± 5%. Further, the “Inhibition of VEGF transcription in cell culture (in words)” value in data set [3] (cell culture) is reported as “more potent inhibitor of VEGF transcription than HBS helix 22”. Besides, the “Side effects in experimental animals” value in data set [7] was “induced coagulative necrosis, anemia, and leukocytosis”.

For the molecule `CN1C(=O)[C@@]23C[C@]4([C@]56C[C@@]78SS[C@@](CO)(C(=O)N7[C@H]5Nc5ccccc56)N(C)C8=O)c5ccccc5N[C@@H]4N2C(=O)[C@]1(CO)SS3` [chaetocin 1, chaetocin], the “Side effects in experimental animals” value in data set [7] was “induced coagulative necrosis, anemia, and leukocytosis”.

B1: peptide 23 (AcTSYDCEVNA-NH2) (peptide)
peptide: Ac-TSYDCEVNA-NH2
notes: also called linear peptide 23; unconstrained peptide 23
As for B1, the Kd in data set [8] was determined as 1.35 µM.

B2: peptide 24 (AcTAYDCEVNA-NH2) (peptide)
peptide: Ac-TAYDCEVNA-NH2
notes: Unconstrained analog of HBS peptide 20 (alanine in place of serine-797); also called linear peptide 24; unconstrained peptide 24
The molecule B2 had a Kd in data set [8] of 1.22 µM.

B3: peptide 25 (AcGTAADCEYNAR-NH2) (peptide)
peptide: Ac-GTAADCEYNAR-NH2
notes: Unconstrained analog of HBS helix 22; also called linear control peptide 25; control peptide 25
On to B3, for which the Kd in data set [8] was 0.825 µM.
